Experimental data reported in patent publication US10059713B2 (Takeda Pharmaceutical Company Limited, priority 2014, dated 2018).
pEC50: −log10 of the molar value.

These molecules were tested against human GPR43 (Homo sapiens (Human), UniProt O15552) (assay: Ca-Flux functional assay: determination of agonist/positive allosteric modulator (PAM) activity). Details: CHO-K1 Gα16 cells stably expressing human GPR43; compound added with EC20 sodium acetate; intracellular Ca2+ by FLIPR; does not distinguish agonist from PAM.
Type: cell-based
Procedure: Ca-Flux Functional Assay: Determination of Agonist/Positive Allosteric Modulator (PAM) Activity
GPR43 agonist/PAM activity was determined by measuring changes in intracellular calcium levels using a Ca^2+ sensitive fluorescent dye. The changes in fluorescent signal were monitored by FLIPR (manufactured by Molecular Devices). GPR43 mediated increases in intracellular Ca^2+ concentration were readily detected upon activation with sodium acetate. Prior to the assay (24 hours), CHO-K1 Gα16 cells stably expressing human GPR43 were-seeded in cell culture medium in black, clear-bottom 384-well plates (Corning Inc) and grown overnight at 37° C., 5% CO2. On the day of the assay, cell culture media was removed and cells were loaded with Calcium 5 Dye (Molecular Devices) diluted in HBSS containing 25 mM HEPES, 2.5 mM Probenecid, 0.1% BSA for 1 hour at 37° C., 5% CO2. 10 point half log concentration response curves of sodium acetate from 10 mM were conducted prior to the testing of compounds to calculate the sodium acetate concentration that produces 20% of the maximal response (EC20). Test compounds (at 10 point half log concentration response curves from 10 μM) were added in the presence of sodium acetate to achieve a final concentration that produces approximately 20% maximal response as calculated from the previous experiment. The changes in fluorescent signal were monitored by FLIPR upon addition of the compound/EC20 sodium acetate mix. The EC50 values were determined from ten point concentration response curves. Curves were generated using the average of two wells for each data point.
The above assay detects both GPR43 receptor agonists and positive allosteric modulators of the GPR43 receptor, without distinguishing between the two. Activity in either regard is useful in the treatment of conditions associated with GPR43 receptor activity.

human GPR43, sequence (O15552 whole entry): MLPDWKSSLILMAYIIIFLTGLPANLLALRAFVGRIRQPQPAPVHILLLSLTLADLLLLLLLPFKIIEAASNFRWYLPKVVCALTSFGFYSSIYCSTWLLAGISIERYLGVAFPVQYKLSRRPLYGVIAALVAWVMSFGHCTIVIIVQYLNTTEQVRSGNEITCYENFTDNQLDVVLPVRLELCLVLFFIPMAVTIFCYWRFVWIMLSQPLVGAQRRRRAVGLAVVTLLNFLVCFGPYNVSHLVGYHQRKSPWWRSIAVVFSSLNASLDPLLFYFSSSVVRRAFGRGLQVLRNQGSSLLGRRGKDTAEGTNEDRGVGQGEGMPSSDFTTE

Row | SMILES | pEC50
1 | Nc1[nH]c2c(C3=CCCC3)ncnc2c1S(=O)(=O)c1ccccc1 [Example 22, 7-(benzenesulfonyl)-4-(cyclopent-1-en-1-yl)-5H-pyrrolo[3,2-d]pyrimidin-6-amine] | 7.14
2 | COc1ccc(S(=O)(=O)c2c(N)[nH]c3c(C4CCCCC4)ncnc23)cc1 [Example 5, 4-cyclohexyl-7-[(4-methoxybenzene)sulfonyl]-5H-pyrrolo[3,2-d]pyrimidin-6-amine] | 7.10
3 | Nc1[nH]c2c(O[C@@H]3CCOC3)ncnc2c1S(=O)(=O)c1ccccc1 [Example 159, 7-(benzenesulfonyl)-4-[(3R)-oxolan-3-yloxy]-5H-pyrrolo[3,2-d]pyrimidin-6-amine] | 5.28
4 | C=C(C)c1nc(C)nc2c(S(=O)(=O)c3ccccc3F)c(N)[nH]c12 [Example 224, 7-(2-fluorobenzenesulfonyl)-2-methyl-4-(prop-1-en-2-yl)-5H-pyrrolo[3,2-d]pyrimidin-6-amine] | 7.07
5 | Nc1[nH]c2c(OCC3CCCCO3)ncnc2c1S(=O)(=O)c1ccccc1 (stereo not shown) [Example 156, 7-(benzenesulfonyl)-4-(oxan-2-ylmethoxy)-5H-pyrrolo[3,2-d]pyrimidin-6-amine] | 5.52
6 | Cc1nc(N2CCOC(C)(C)C2C)c2[nH]c(N)c(S(=O)(=O)c3ccccc3F)c2n1 (stereo not shown) [Example 8, 7-(2-fluorobenzenesulfonyl)-2-methyl-4-(2,2,3-trimethylmorpholin-4-yl)-5H-pyrrolo[3,2-d]pyrimidin-6-amine] | 8.52
7 | Cc1nc(N(C)C(C)C)c2[nH]c(N)c(S(=O)(=O)c3cccc(F)c3)c2n1 [Example 193, 7-(3-fluorobenzenesulfonyl)-2,4-N-dimethyl-4-N-(propan-2-yl)-5H-pyrrolo[3,2-d]pyrimidine-4,6-diamine] | 6.57
8 | Nc1[nH]c2c(N(CC3CC3)CC3CCCO3)ncnc2c1S(=O)(=O)c1ccccc1 (stereo not shown) [Example 63, 7-(benzenesulfonyl)-4-N-(cyclopropylmethyl)-4-N-(oxolan-2-ylmethyl)-5H-pyrrolo[3,2-d]pyrimidine-4,6-diamine] | 6.90
9 | COc1ccc(S(=O)(=O)c2c(N)[nH]c3c(N4CCOC(C)C4)ncnc23)cc1Cl (stereo not shown) [Example 123, 7-(3-chloro-4-methoxybenzenesulfonyl)-4-(2-methylmorpholin-4-yl)-5H-pyrrolo[3,2-d]pyrimidin-6-amine] | 6.94
10 | Cc1nc(N2CCC3(CC2)CC3)c2[nH]c(N)c(S(=O)(=O)c3ccccc3)c2n1 [Example 207, 4-{6-azaspiro[2.5]octan-6-yl}-7-(benzenesulfonyl)-2-methyl-5H-pyrrolo[3,2-d]pyrimidin-6-amine] | 7.57
11 | CC1CN(c2ncnc3c(S(=O)(=O)c4ccccc4)c(N)[nH]c23)CC(C)S1 (stereo not shown) [Example 197, 7-(benzenesulfonyl)-4-(2,6-dimethylthiomorpholin-4-yl)-5H-pyrrolo[3,2-d]pyrimidin-6-amine] | 8.40
12 | CCC1CN(c2ncnc3c(S(=O)(=O)c4ccc(OC)cc4)c(N)[nH]c23)CCO1 (stereo not shown) [Example 190, 4-(2-ethylmorpholin-4-yl)-7-(4-methoxybenzenesulfonyl)-5H-pyrrolo[3,2-d]pyrimidin-6-amine] | 6.90
13 | Cc1nc(N2CCO[C@@H](C)C2)c2[nH]c(N)c(S(=O)(=O)c3ccccc3)c2n1 [Example 226, 7-(benzenesulfonyl)-2-methyl-4-[(2S)-2-methylmorpholin-4-yl]-5H-pyrrolo[3,2-d]pyrimidin-6-amine] | 7.89
14 | COc1ccc(S(=O)(=O)c2c(N)[nH]c3c(-c4ccccc4)ncnc23)cc1 [Example 76, 7-(4-methoxybenzenesulfonyl)-4-phenyl-5H-pyrrolo[3,2-d]pyrimidin-6-amine] | 6.87
15 | Cc1nc(C2CCC(F)(F)CC2)c2[nH]c(N)c(S(=O)(=O)c3ccccc3)c2n1 [Example 183, 7-(benzenesulfonyl)-4-(4,4-difluorocyclohexyl)-2-methyl-5H-pyrrolo[3,2-d]pyrimidin-6-amine] | 6.76
16 | COCC1CCN(c2ncnc3c(S(=O)(=O)c4ccccc4)c(N)[nH]c23)CC1 [Example 112, 7-(benzenesulfonyl)-4-[4-(methoxymethyl)piperidin-1-yl]-5H-pyrrolo[3,2-d]pyrimidin-6-amine] | 6.09
17 | Cc1nc(OCC(C)C)c2[nH]c(N)c(S(=O)(=O)c3ccccc3)c2n1 [Example 251, 7-(benzenesulfonyl)-2-methyl-4-(2-methylpropoxy)-5H-pyrrolo[3,2-d]pyrimidin-6-amine] | 7.31

Row | SMILES | pEC50
18 | CC1(C)CN(c2ccnc3c(S(=O)(=O)c4ccccc4)c(N)[nH]c23)CCO1 [Example 277, 3-(benzenesulfonyl)-7-(2,2-dimethylmorpholin-4-yl)-H-pyrrolo[3,2-b]pyridin-2-amine] | 7.40
19 | Cc1nc(N2C[C@@H](C)OC[C@H]2C)c2[nH]c(N)c(S(=O)(=O)c3ccccc3F)c2n1 [Example 232, 4-[(2R,5R)-2,5-dimethylmorpholin-4-yl]-7-(2-fluorobenzenesulfonyl)-2-methyl-5H-pyrrolo[3,2-d]pyrimidin-6-amine] | 8.52
20 | CSc1nc(N2CCOC(C(F)(F)F)C2)c2[nH]c(N)c(S(=O)(=O)c3ccccc3F)c2n1 (stereo not shown) [Example 301, 7-(2-fluorobenzenesulfonyl)-2-(methylsulfanyl)-4-[2-(trifluoromethyl)morpholin-4-yl]-5H-pyrrolo[3,2-d]pyrimidin-6-amine] | 7.85
21 | COC1CCN(c2ncnc3c(S(=O)(=O)c4ccccc4)c(N)[nH]c23)C1 (stereo not shown) [Example 117, 7-(benzenesulfonyl)-4-(3-methoxypyrrolidin-1-yl)-5H-pyrrolo[3,2-d]pyrimidin-6-amine] | 5.48
22 | Cc1nc(N2CCOC(C(F)(F)F)C2)c2[nH]c(N)c(S(=O)(=O)c3ccccc3)c2n1 (stereo not shown) [Example 225, 7-(benzenesulfonyl)-2-methyl-4-[2-(trifluoromethyl)morpholin-4-yl]-5H-pyrrolo[3,2-d]pyrimidin-6-amine] | 7.85
23 | Cc1nc(N2CCOC3(CCCC3)C2)c2[nH]c(N)c(S(=O)(=O)c3ccccc3F)c2n1 [Example 177, 7-(2-fluorobenzenesulfonyl)-2-methyl-4-{6-oxa-9-azaspiro[4.5]decan-9-yl}-5H-pyrrolo[3,2-d]pyrimidin-6-amine] | 8.22
24 | Cc1cc(F)ccc1S(=O)(=O)c1c(N)[nH]c2c(N3CCOC(C)C3)ncnc12 (stereo not shown) [Example 178, 7-(4-fluoro-2-methylbenzenesulfonyl)-4-(2-methylmorpholin-4-yl)-5H-pyrrolo[3,2-d]pyrimidin-6-amine] | 6.17
25 | Nc1[nH]c2c(C3CCCCC3)ncnc2c1S(=O)(=O)c1ccc(F)c(F)c1 [Example 60, 4-cyclohexyl-7-(3,4-difluorobenzenesulfonyl)-5H-pyrrolo[3,2-d]pyrimidin-6-amine] | 6.74
26 | COC1CCCN(c2ncnc3c(S(=O)(=O)c4ccccc4)c(N)[nH]c23)C1 (stereo not shown) [Example 105, 7-(benzenesulfonyl)-4-(3-methoxypiperidin-1-yl)-5H-pyrrolo[3,2-d]pyrimidin-6-amine] | 6.68
27 | Cc1nc(N2C[C@@H](C)O[C@@H](C)C2)c2[nH]c(N)c(S(=O)(=O)c3cccc(F)c3)c2n1 [Example 179, 4-[(2R,6S)-2,6-dimethylmorpholin-4-yl]-7-(3-fluorobenzenesulfonyl)-2-methyl-5H-pyrrolo[3,2-d]pyrimidin-6-amine] | 7.74
28 | Nc1[nH]c2c(N3CCCC(F)(F)C3)ncnc2c1S(=O)(=O)c1ccccc1 [Example 34, 7-(benzenesulfonyl)-4-(3,3-difluoropiperidin-1-yl)-5H-pyrrolo[3,2-d]pyrimidin-6-amine] | 7.05
29 | Nc1[nH]c2c(C3=CCCCC3)ncnc2c1S(=O)(=O)c1ccccc1 [Example 2, 7-(benzenesulfonyl)-4-(cyclohex-1-en-1-yl)-5H-pyrrolo[3,2-d]pyrimidin-6-amine] | 7.68
30 | Cc1cccc(-c2ncnc3c(S(=O)(=O)c4ccccc4)c(N)[nH]c23)c1 [Example 57, 7-(benzenesulfonyl)-4-(3-methylphenyl)-5H-pyrrolo[3,2-d]pyrimidin-6-amine] | 7.82
31 | Cc1nc(OCC2CC2)c2[nH]c(N)c(S(=O)(=O)c3cccc(F)c3)c2n1 [Example 194, 4-(cyclopropylmethoxy)-7-(3-fluorobenzenesulfonyl)-2-methyl-5H-pyrrolo[3,2-d]pyrimidin-6-amine] | 6.32
32 | CSc1nc(N2CCOC(C)C2)c2[nH]c(N)c(S(=O)(=O)c3cccc(F)c3)c2n1 (stereo not shown) [Example 264, 7-(3-fluorobenzenesulfonyl)-4-(2-methylmorpholin-4-yl)-2-(methylsulfanyl)-5H-pyrrolo[3,2-d]pyrimidin-6-amine] | 7.35
33 | Nc1[nH]c2c(N3CCO[C@H](c4ccccc4)C3)ncnc2c1S(=O)(=O)c1ccccc1 [Example 133, 7-(benzenesulfonyl)-4-[(2R)-2-phenylmorpholin-4-yl]-5H-pyrrolo[3,2-d]pyrimidin-6-amine] | 7.62
34 | Cc1ccc(S(=O)(=O)c2c(N)[nH]c3c(C4CCCCC4)ncnc23)cc1 [Example 45, 4-cyclohexyl-7-[(4-methylbenzene)sulfonyl]-5H-pyrrolo[3,2-d]pyrimidin-6-amine] | 7.08
